The text below walks through data of ChEMBL document CHEMBL1201862, “PubChem BioAssay data set” (2004).

SMILES strings stand for the structures. Where a name gives a salt, the structure may show the parent alone.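 Cells were grown in 96-well plates and exposed to each compound for 48 hours at five concentrations; endpoints were interpolated linearly between bracketing concentrations, or set to the highest concentration if not reached. GI50 marks 50% less growth.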 The source made the active and inactive calls. Rule as the data show it: active = GI50 up to about 1.1 µM and inactive = higher.

Among the test systems are A498; CCRF-CEM; COLO 205; DU-145; HCT-116; K562; LOX IMVI; M14; MCF7; MOLT-4; Malme-3M; NCI-H23; NCI-H460; NCI/ADR-RES; OVCAR-5; SF-539; SK-MEL-5; SNB-19; UO-31; KM-20L2.
Holding throughout (test): NCI-60 cell line screen, 48 h

With `Cc1ccc2nc(/C=N/c3ccccc3Cl)cc(C)c2c1`, the GI50 was > 100 µM (inactive) in the test on A498; 4.89 µM (inactive) in the test on CCRF-CEM; 50.8 µM (inactive) in the test with COLO 205; 46.7 µM (inactive) in the test on DU-145; 4.21 µM (inactive) in the test on HCT-116; 19.1 µM (inactive) in the test with K562. Also, the GI50 in the test on LOX IMVI is 8.61 µM (inactive); in the test with M14, 13.2 µM (inactive); in the test on MCF7, 17.5 µM (inactive); in the test on MOLT-4 it was 5.79 µM (inactive); with Malme-3M it was 20.8 µM (inactive); in the test on NCI-H23, 22.2 µM (inactive). The GI50 in the test with NCI-H460 was 17.2 µM (inactive); in the test with NCI/ADR-RES, 16.8 µM (inactive); in the test with OVCAR-5, 42.3 µM (inactive); in the test on SF-539, 16.5 µM (inactive); with SK-MEL-5, 14.9 µM (inactive); in the test with SNB-19 it was 30.2 µM (inactive). For the same compound, the GI50 in the test on UO-31 is 16.5 µM (inactive).

For `Cc1cc2c(C)n(Cc3ccccc3Cl)nc2c(C(=O)O)c1C`, the GI50 with CCRF-CEM is > 100 µM (inactive); in the test with COLO 205, > 10 µM (inactive); with HCT-116 it was > 100 µM (inactive); with KM-20L2, > 100 µM (inactive); in the test with LOX IMVI, > 100 µM (inactive); in the test with MOLT-4, > 100 µM (inactive). Further, the GI50 in the test with Malme-3M, in the test on NCI-H23, with NCI-H460, with OVCAR-5, in the test with SF-539 and in the test with SNB-19 was > 100 µM (inactive) in each case. The GI50 in the test with UO-31 was > 100 µM (inactive).

As for `CC(=O)SC(C[N+](=O)[O-])c1ccccc1` (configuration not stated), the GI50 with A498 was 5.43 µM (inactive); in the test on CCRF-CEM, 2.84 µM (inactive); in the test with COLO 205 it was 2.77 µM (inactive); in the test with DU-145 it was 6.37 µM (inactive); in the test with HCT-116, 1.6 µM (inactive); with K562, 2.41 µM (inactive). For the same compound, the GI50 in the test with LOX IMVI was 1.65 µM (inactive); with M14, 3.84 µM (inactive); in the test on MCF7 it was 1.74 µM (inactive); with MOLT-4 it was 1.72 µM (inactive); in the test with Malme-3M it was 16.6 µM (inactive); in the test with NCI-H23, 12 µM (inactive). Further, the GI50 in the test on NCI-H460 was 8.67 µM (inactive); in the test on NCI/ADR-RES, 20.1 µM (inactive); with OVCAR-5, 3.8 µM (inactive); in the test on SF-539, 2.27 µM (inactive); with SK-MEL-5, 2.68 µM (inactive); with SNB-19, 11.9 µM (inactive). Moreover, in the test with UO-31, the GI50 was 2.3 µM (inactive).

As to `CCN(CC)c1ccc(/C=C/C2=NN(c3cccc(S(=O)(=O)O)c3)C3(C2)SCC(=O)N3c2nc3ccccc3s2)cc1` (configuration not stated), the GI50 is 27.5 µM (inactive) with A498; 21.4 µM (inactive) in the test on CCRF-CEM; 24.1 µM (inactive) in the test with COLO 205; 27.4 µM (inactive) with DU-145; 45.1 µM (inactive) with HCT-116; 17.7 µM (inactive) in the test with K562. In addition, the GI50 in the test on LOX IMVI was 45.6 µM (inactive); in the test with M14, 41.8 µM (inactive); with MCF7, 25.6 µM (inactive); with MOLT-4 it was 22 µM (inactive); in the test with Malme-3M it was 24.7 µM (inactive); with NCI-H23 it was 37.2 µM (inactive). In addition, the GI50 in the test with NCI-H460 was 36.5 µM (inactive); in the test with NCI/ADR-RES it was > 100 µM (inactive); in the test with OVCAR-5, > 100 µM (inactive); in the test with SF-539, 33 µM (inactive); in the test with SK-MEL-5, 21.1 µM (inactive); with SNB-19 it was 39.8 µM (inactive). The GI50 in the test with UO-31 is 29.9 µM (inactive).

Turning to `CC1=C(c2ccccc2)CON(c2ccccc2)C1`, the GI50 with CCRF-CEM is 25.1 µM (inactive); with COLO 205, 33.1 µM (inactive); with HCT-116, 24.7 µM (inactive); with K562, 30.1 µM (inactive); in the test with KM-20L2, 31.4 µM (inactive); with LOX IMVI, 30.8 µM (inactive). Further, the GI50 in the test with M14 was 33.4 µM (inactive); in the test on MOLT-4, 29.6 µM (inactive); in the test on Malme-3M, 56.4 µM (inactive); in the test with NCI-H23 it was 51.5 µM (inactive); in the test with NCI-H460, 35 µM (inactive); in the test on OVCAR-5 it was 32.9 µM (inactive). Moreover, the GI50 in the test on SF-539 was 40.6 µM (inactive); in the test on SK-MEL-5 it was 20.5 µM (inactive); in the test on SNB-19 it was 39.4 µM (inactive); in the test with UO-31, 29.7 µM (inactive).

Consider `O=C1c2cc(Cc3ccccc3)c(=O)c(Cc3ccccc3)cc2C(=O)c2cc(Cc3ccccc3)c(=O)c(Cc3ccccc3)cc21`, for which the GI50 with A498 is > 100 µM (inactive); in the test with CCRF-CEM, 74.5 µM (inactive); in the test on COLO 205, > 100 µM (inactive); with DU-145, > 100 µM (inactive); in the test on HCT-116, > 100 µM (inactive); in the test on K562, 89.9 µM (inactive). The GI50 is > 100 µM (inactive) in the test with LOX IMVI; > 100 µM (inactive) in the test with M14; > 100 µM (inactive) with MCF7; 97.3 µM (inactive) with MOLT-4; > 100 µM (inactive) in the test with Malme-3M; > 100 µM (inactive) with NCI-H23. Further, the GI50 in the test on NCI-H460, in the test on NCI/ADR-RES, in the test on OVCAR-5, in the test with SF-539, in the test with SK-MEL-5 and in the test on SNB-19 was > 100 µM (inactive) throughout. Further, the GI50 in the test with UO-31 was > 100 µM (inactive).

For the compound `Cc1cc2c(=O)cc(-c3ccc(Cl)cc3Cl)oc2c(C(=O)O)c1C`, the GI50 in the test on CCRF-CEM, in the test with COLO 205, in the test with HCT-116, in the test with K562, with KM-20L2 and in the test on LOX IMVI was > 100 µM (inactive) in each case. Further, the GI50 in the test on M14, in the test with MOLT-4, in the test on Malme-3M, in the test on NCI-H23, with NCI-H460 and in the test on OVCAR-5 was > 100 µM (inactive) in each case. Moreover, the GI50 in the test with SF-539, in the test with SK-MEL-5, in the test on SNB-19 and in the test with UO-31 was > 100 µM (inactive) throughout.

As to `O=C1CC2Sc3ccccc3N=C2N1c1ccc(Cl)cc1Cl` (configuration not stated), the GI50 with CCRF-CEM was 17.1 µM (inactive); in the test with COLO 205 it was > 100 µM (inactive); in the test with HCT-116 it was 38.2 µM (inactive); with KM-20L2 it was > 100 µM (inactive); in the test on LOX IMVI, 40.7 µM (inactive); in the test on M14 it was 71 µM (inactive). Moreover, the GI50 with MOLT-4 is 23.3 µM (inactive); with Malme-3M, 64.7 µM (inactive); in the test on NCI-H23, 87.7 µM (inactive); with NCI-H460, > 100 µM (inactive); in the test on OVCAR-5, > 100 µM (inactive); in the test with SK-MEL-5, 81.5 µM (inactive). The GI50 with SNB-19 is 77.8 µM (inactive); in the test with UO-31, 29.9 µM (inactive).

For `CCc1nc(N)nc(N)c1-c1ccc(NC)c([N+](=O)[O-])c1`, the GI50 was 2.43 µM (inactive) with A498; 0.531 µM (active) in the test on CCRF-CEM; 4.84 µM (inactive) in the test with COLO 205; 2.14 µM (inactive) with DU-145; 0.219 µM (active) in the test with HCT-116; 0.0631 µM (active) in the test on K562. Moreover, the GI50 was 0.449 µM (active) in the test on LOX IMVI; 0.959 µM (active) in the test with M14; 2.48 µM (inactive) in the test on MCF7; 1 µM (active) with MOLT-4; 24.8 µM (inactive) in the test on Malme-3M; 0.944 µM (active) in the test on NCI-H23. Besides, the GI50 is 0.15 µM (active) in the test on NCI-H460; 1.2 µM (inactive) in the test on NCI/ADR-RES; 17.1 µM (inactive) with OVCAR-5; 1.47 µM (inactive) in the test with SF-539; 0.63 µM (active) in the test on SK-MEL-5; 9.08 µM (inactive) in the test on SNB-19. Moreover, the GI50 with UO-31 is 7.93 µM (inactive).

Turning to `NC(=O)NC1NC(=O)NC1=O` (configuration not stated) [ALLANTOIN], the GI50 with A498, in the test on CCRF-CEM, in the test on COLO 205, in the test with DU-145, in the test on HCT-116 and in the test with K562 was > 100 µM (inactive) in each case. Besides, the GI50 in the test on LOX IMVI, in the test with M14, with MCF7, in the test with MOLT-4, in the test with Malme-3M and in the test with NCI-H23 was > 100 µM (inactive) each time. Besides, the GI50 in the test on NCI-H460, with NCI/ADR-RES, in the test with OVCAR-5, with SF-539, with SK-MEL-5 and in the test with SNB-19 was > 100 µM (inactive) each time. For the same compound, the GI50 in the test on UO-31 was 6 µM (inactive).

For `CN1CCC(CN2c3ccccc3Sc3ccccc32)C1` (configuration not stated) [METHDILAZINE HYDROCHLORIDE], the GI50 was 13.1 µM (inactive) with A498; 15.2 µM (inactive) in the test with CCRF-CEM; 11.5 µM (inactive) with COLO 205; 17.8 µM (inactive) in the test with DU-145; 13.9 µM (inactive) with HCT-116; 12.3 µM (inactive) with K562. For the same compound, the GI50 with LOX IMVI was 15 µM (inactive); with M14, 10.5 µM (inactive); in the test on MCF7 it was 17.2 µM (inactive); with MOLT-4 it was 16.3 µM (inactive); with Malme-3M, 16.5 µM (inactive); in the test with NCI-H23, 20.3 µM (inactive). Also, the GI50 in the test with NCI-H460 was 13.9 µM (inactive); in the test on NCI/ADR-RES, 15.2 µM (inactive); in the test on OVCAR-5, 16.7 µM (inactive); in the test on SF-539 it was 16.8 µM (inactive); with SK-MEL-5, 13.7 µM (inactive); in the test on SNB-19, 17.9 µM (inactive). Besides, in the test with UO-31, the GI50 is 14.8 µM (inactive).
